Source: patent US9796711B2, “Substituted pyrazolo[3,4-b]pyridin-6-carboxylic acids and method of use” (AbbVie S.àr.l., priority 2015, dated 2017)

What was measured:
ΔF508-CFTR [1] = molecular target: T1, ΔF508-CFTR (Homo sapiens, UniProt P13569, DEL508-508); test: CFTR cell surface levels using HRP-tagged ΔF508-CFTR expressing CFBE cells, in the presence of a co-corrector; format: cell-based
T1 construct: host or cells: CFBE41o-, doxycycline-inducible
In short: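 Cells were seeded with 0.5 μg/mL doxycycline and held 68 h at 37 °C. Test compounds plus 3 μM co-corrector (final 0.1% DMSO) were then added for 20 h at 33 °C. Washed cells received HRP substrate, and luminescence was normalized between DMSO and 3 μM co-corrector controls.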

ΔF508-CFTR [2] = molecular target: T1, ΔF508-CFTR; test: CFTR cell surface levels using HRP-tagged ΔF508-CFTR expressing CFBE cells, intrinsic corrector capacity; format: cell-based
In short: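 Here the cells express ΔF508-CFTR with horseradish peroxidase inserted in extracellular loop 4, so only rescued channel at the surface gives luminescent signal. Compounds act on their own, 20 h at the reduced temperature of 33 °C; values are percent activity relative to DMSO and a 3 μM corrector.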

[3] = HRP-tagged ΔF508-CFTR expressing CFBE cells, in the presence of 3 μM co-corrector
[4] = HRP-tagged ΔF508-CFTR expressing CFBE cells, in the presence of 3 μM co-corrector, read-out: EC50
[5] = HRP-tagged ΔF508-CFTR expressing CFBE cells, intrinsic corrector capacity (no co-corrector), 33° C., 20 hours
[6] = HRP-tagged ΔF508-CFTR expressing CFBE cells, intrinsic corrector capacity (no co-corrector), 33° C., 20 hours, read-out: EC50

T1 sequence (P13569 with tags, fused parts or gaps DEL508-508): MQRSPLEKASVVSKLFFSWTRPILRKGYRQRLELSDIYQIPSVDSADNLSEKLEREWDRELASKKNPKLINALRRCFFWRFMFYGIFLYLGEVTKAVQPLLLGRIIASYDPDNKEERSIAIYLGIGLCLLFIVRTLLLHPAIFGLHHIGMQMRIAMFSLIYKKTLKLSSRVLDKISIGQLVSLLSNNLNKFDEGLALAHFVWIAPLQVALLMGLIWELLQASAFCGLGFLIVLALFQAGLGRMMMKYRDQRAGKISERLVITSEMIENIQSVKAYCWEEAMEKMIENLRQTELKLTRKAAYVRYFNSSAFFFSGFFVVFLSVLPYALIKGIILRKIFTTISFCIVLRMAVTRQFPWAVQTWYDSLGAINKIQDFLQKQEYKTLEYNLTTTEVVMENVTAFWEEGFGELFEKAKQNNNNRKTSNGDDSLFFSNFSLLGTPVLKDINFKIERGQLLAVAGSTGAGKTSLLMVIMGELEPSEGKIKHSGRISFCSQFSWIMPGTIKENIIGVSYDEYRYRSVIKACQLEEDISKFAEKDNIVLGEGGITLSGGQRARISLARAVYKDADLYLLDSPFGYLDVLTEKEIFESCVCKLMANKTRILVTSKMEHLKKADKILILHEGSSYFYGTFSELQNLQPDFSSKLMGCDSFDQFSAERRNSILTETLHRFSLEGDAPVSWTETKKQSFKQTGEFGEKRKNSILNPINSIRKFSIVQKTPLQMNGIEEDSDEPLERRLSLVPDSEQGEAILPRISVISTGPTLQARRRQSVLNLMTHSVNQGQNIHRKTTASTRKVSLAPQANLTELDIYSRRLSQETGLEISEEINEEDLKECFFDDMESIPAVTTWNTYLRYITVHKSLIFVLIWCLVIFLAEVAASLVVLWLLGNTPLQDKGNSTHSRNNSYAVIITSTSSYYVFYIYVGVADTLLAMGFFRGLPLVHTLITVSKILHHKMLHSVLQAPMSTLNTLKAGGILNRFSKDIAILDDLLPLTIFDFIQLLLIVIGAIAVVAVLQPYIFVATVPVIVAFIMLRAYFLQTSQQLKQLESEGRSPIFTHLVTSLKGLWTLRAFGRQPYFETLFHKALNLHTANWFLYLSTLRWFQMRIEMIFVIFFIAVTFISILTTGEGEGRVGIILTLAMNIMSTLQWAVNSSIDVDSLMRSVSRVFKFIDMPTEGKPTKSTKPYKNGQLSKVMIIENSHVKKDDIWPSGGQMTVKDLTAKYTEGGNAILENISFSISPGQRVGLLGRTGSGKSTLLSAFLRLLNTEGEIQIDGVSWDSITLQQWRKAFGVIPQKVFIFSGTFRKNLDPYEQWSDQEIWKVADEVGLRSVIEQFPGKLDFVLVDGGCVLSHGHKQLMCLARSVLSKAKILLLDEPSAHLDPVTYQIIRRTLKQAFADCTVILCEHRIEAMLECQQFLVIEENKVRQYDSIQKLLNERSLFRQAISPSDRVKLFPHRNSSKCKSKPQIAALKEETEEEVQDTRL

SMILES	% Activation (ΔF508-CFTR [1]; [3]) [%]	EC50 (ΔF508-CFTR [1]; [4]) [µM]	% Activation (ΔF508-CFTR [2]; [5]) [%]	EC50 (ΔF508-CFTR [2]; [6]) [µM]	EC50 (ΔF508-CFTR [1]) [µM]	EC50 (ΔF508-CFTR [2]) [µM]	% Activation (ΔF508-CFTR [2]; HRP-tagged ΔF508-CFTR CFBE41o- cells, compounds alone (intrinsic corrector capacity), 20 hours at 33° C., positive control 3 μM corrector) [%]
CN1CCN(C2CCN(c3cc(C(=O)O)nc4c3c(C3CCC3)nn4-c3ccccc3)CC2)CC1 [compound 757, 3-cyclobutyl-4-[4-(4-methylpiperazin-1-yl)piperidin-1-yl]-1-phenyl-1H-pyrazolo[3,4-b]pyridine-6-carboxylic acid]	489.6	0.402	208.45	0.319			
Cc1c(C(=O)O)nc2c(c(C(C)C)nn2-c2ccc(F)cc2)c1N1CCC(N2CCOCC2)CC1 [compound 763, 1-(4-fluorophenyl)-5-methyl-4-[4-(morpholin-4-yl)piperidin-1-yl]-3-(propan-2-yl)-1H-pyrazolo[3,4-b]pyridine-6-carboxylic acid]	276.3				1.67	1.63	161.25
CC(C)Oc1nn(C2CCCCC2)c2nc(C(=O)O)cc(-c3ccc(C(=O)N4CCN(C)CC4)cc3)c12 [compound 764, 1-cyclohexyl-4-[4-(4-methylpiperazine-1-carbonyl)phenyl]-3-[(propan-2-yl)oxy]-1H-pyrazolo[3,4-b]pyridine-6-carboxylic acid]	255.65	2.41	85.92	3.33			
CC(C)c1nn(-c2ccc(F)cc2)c2nc(C(=O)O)cc(N3CC(N4CCOCC4)C3)c12 [compound 765, 1-(4-fluorophenyl)-4-[3-(morpholin-4-yl)azetidin-1-yl]-3-(propan-2-yl)-1H-pyrazolo[3,4-b]pyridine-6-carboxylic acid]	181.3	0.738	45.48	1.67			
CCCN1CCCN(c2cc(C(=O)O)nc3c2c(C(C)C)nn3-c2ccc(F)cc2)CC1 [compound 766, 1-(4-fluorophenyl)-3-(propan-2-yl)-4-(4-propyl-1,4-diazepan-1-yl)-1H-pyrazolo[3,4-b]pyridine-6-carboxylic acid]	213.4	1.18	54.3	1.67			
CC(C)c1nn(-c2ccc(F)cc2)c2nc(C(=O)O)cc(N3CCCN(C4CCC4)CC3)c12 [compound 767, 4-(4-cyclobutyl-1,4-diazepan-1-yl)-1-(4-fluorophenyl)-3-(propan-2-yl)-1H-pyrazolo[3,4-b]pyridine-6-carboxylic acid]	210.1	1.67	59.96	1.67			
CCCCN1CCCN(c2cc(C(=O)O)nc3c2c(C(C)C)nn3-c2ccc(F)cc2)CC1 [compound 768, 4-(4-butyl-1,4-diazepan-1-yl)-1-(4-fluorophenyl)-3-(propan-2-yl)-1H-pyrazolo[3,4-b]pyridine-6-carboxylic acid]	256.5	1.67	79.69	1.58			
CC(C)c1nn(-c2ccc(F)cc2)c2nc(C(=O)O)cc(N3CCCN(C)CC3)c12 [compound 769, 1-(4-fluorophenyl)-4-(4-methyl-1,4-diazepan-1-yl)-3-(propan-2-yl)-1H-pyrazolo[3,4-b]pyridine-6-carboxylic acid]	157.2	1.58	19.25	5			
CC(C)c1nn(-c2ccc(F)cc2)c2nc(C(=O)O)cc(N3CCN4CCC[C@@H]4C3)c12 [compound 770, 1-(4-fluorophenyl)-4-[(8aR)-hexahydropyrrolo[1,2-a]pyrazin-2(1H)-yl]-3-(propan-2-yl)-1H-pyrazolo[3,4-b]pyridine-6-carboxylic acid]	234.5	0.9	85.33	1.67			
CC(=O)N1CCN(c2cc(C(=O)O)nc3c2c(C(C)C)nn3-c2ccc(F)cc2)CC1 [compound 771, 4-(4-acetylpiperazin-1-yl)-1-(4-fluorophenyl)-3-(propan-2-yl)-1H-pyrazolo[3,4-b]pyridine-6-carboxylic acid]	290.8	1.67	94.91	1.67			
CCN1CCN(c2cc(C(=O)O)nc3c2c(C(C)C)nn3-c2ccc(F)cc2)CC1 [compound 772, 4-(4-ethylpiperazin-1-yl)-1-(4-fluorophenyl)-3-(propan-2-yl)-1H-pyrazolo[3,4-b]pyridine-6-carboxylic acid]	226.6	1.36	53.82	1.67			
CC(C)c1nn(-c2ccc(F)cc2)c2nc(C(=O)O)cc(N3CCN(CCO)CC3)c12 [compound 773, 1-(4-fluorophenyl)-4-[4-(2-hydroxyethyl)piperazin-1-yl]-3-(propan-2-yl)-1H-pyrazolo[3,4-b]pyridine-6-carboxylic acid]	141.8	5	16.13	5			
CC(C)c1nn(-c2ccc(F)cc2)c2nc(C(=O)O)cc(N3CCN(C(=O)N(C)C)CC3)c12 [compound 774, 4-[4-(dimethylcarbamoyl)piperazin-1-yl]-1-(4-fluorophenyl)-3-(propan-2-yl)-1H-pyrazolo[3,4-b]pyridine-6-carboxylic acid]	375.6	1.67	163	1.67			
CCOCC(=O)N1CCN(c2cc(C(=O)O)nc3c2c(C(C)C)nn3-c2ccc(F)cc2)CC1 [compound 775, 4-[4-(ethoxyacetyl)piperazin-1-yl]-1-(4-fluorophenyl)-3-(propan-2-yl)-1H-pyrazolo[3,4-b]pyridine-6-carboxylic acid]	262.4	1.67	93.07	1.67			
COCCCN1CCN(c2cc(C(=O)O)nc3c2c(C(C)C)nn3-c2ccc(F)cc2)CC1 [compound 776, 1-(4-fluorophenyl)-4-[4-(3-methoxypropyl)piperazin-1-yl]-3-(propan-2-yl)-1H-pyrazolo[3,4-b]pyridine-6-carboxylic acid]	261.4	0.531	113.2	1.67			
CCCN1CCN(c2cc(C(=O)O)nc3c2c(C(C)C)nn3-c2ccc(F)cc2)CC1 [compound 777, 1-(4-fluorophenyl)-3-(propan-2-yl)-4-(4-propylpiperazin-1-yl)-1H-pyrazolo[3,4-b]pyridine-6-carboxylic acid]	254.9	0.955	95	1.67			
CC(C)c1nn(-c2ccc(F)cc2)c2nc(C(=O)O)cc(N3CCN(CCOCCO)CC3)c12 [compound 778, 1-(4-fluorophenyl)-4-{4-[2-(2-hydroxyethoxy)ethyl]piperazin-1-yl}-3-(propan-2-yl)-1H-pyrazolo[3,4-b]pyridine-6-carboxylic acid]	149	1.67	9.442	5			
CC(C)c1nn(-c2ccc(F)cc2)c2nc(C(=O)O)cc(N3CCN(CCC(=O)N4CCCN(C)CC4)CC3)c12 [compound 779, 1-(4-fluorophenyl)-4-{4-[3-(4-methyl-1,4-diazepan-1-yl)-3-oxopropyl]piperazin-1-yl}-3-(propan-2-yl)-1H-pyrazolo[3,4-b]pyridine-6-carboxylic acid]	121.2	5	6.923	5			
CC(C)c1nn(-c2ccc(F)cc2)c2nc(C(=O)O)cc(N3CCC(CC4CCCCC4)CC3)c12 [compound 780, 4-[4-(cyclohexylmethyl)piperidin-1-yl]-1-(4-fluorophenyl)-3-(propan-2-yl)-1H-pyrazolo[3,4-b]pyridine-6-carboxylic acid]	429.5	0.124	233.5	0.249			
CC(C)c1nn(-c2ccc(F)cc2)c2nc(C(=O)O)cc(N3CCC4(CCN(C)CC4)CC3)c12 [compound 781, 1-(4-fluorophenyl)-4-(9-methyl-3,9-diazaspiro[5.5]undecan-3-yl)-3-(propan-2-yl)-1H-pyrazolo[3,4-b]pyridine-6-carboxylic acid]	368.7	1.56	154	1.67			
CC(C)c1nn(-c2ccc(F)cc2)c2nc(C(=O)O)cc(N3CCC4(CC3)OCCO4)c12 [compound 782, 4-(1,4-dioxa-8-azaspiro[4.5]decan-8-yl)-1-(4-fluorophenyl)-3-(propan-2-yl)-1H-pyrazolo[3,4-b]pyridine-6-carboxylic acid]	345.2	0.272	174.4	0.673			
CC(C)c1nn(-c2ccc(F)cc2)c2nc(C(=O)O)cc(N3CCC[C@@H](O)C3)c12 [compound 783, 1-(4-fluorophenyl)-4-[(3R)-3-hydroxypiperidin-1-yl]-3-(propan-2-yl)-1H-pyrazolo[3,4-b]pyridine-6-carboxylic acid]	283.6	1.67	95.05	1.67			
CC(C)c1nn(-c2ccc(F)cc2)c2nc(C(=O)O)cc(N3CCC(C)(N4CCCCC4)CC3)c12 [compound 784, 1-(4-fluorophenyl)-4-(4′-methyl [1,4′-bipiperidin]-1′-yl)-3-(propan-2-yl)-1H-pyrazolo[3,4-b]pyridine-6-carboxylic acid]	225.6	1.67	38.94	1.22			
